# Measured values as given in patent US6124324A, “Thiophene-ethyl thiourea compounds and use” (Hughes Institute, priority 1999, dated 2000).
# Like-named read-outs stand apart in the source and are kept apart here.
# Assays:
# [1] = biological target: T1, purified recombinant HIV RT (Human immunodeficiency virus type 1 group M subtype B, UniProt P04585); experiment: Purified RT assay, cell-free Quan-T-RT system (scintillation proximity); assay type: biochemical
# T1 construct: purified recombinant HIV RT; purchased Amersham, Arlington Heights, Ill; (Quan-T-RT system)
# Method: The synthesized compounds were tested for RT inhibitory activity (IC50 [rRT]) against purified recombinant HIV RT using the cell-free Quan-T-RT system (Amersham, Arlington Heights, Ill.), which utilizes the scintillation proximity assay principle as decribed in Bosworth, et al., 1989, Nature 341:167-168. In the assay, a DNA/RNA template is bound to SPA beads via a biotin/strepavidin linkage. The primer DNA is a 16-mer oligo(T) which has been annealed to a poly(A) template. The primer/template is bound to a strepavidin-coated SPA bead.
# ^3 H-TTP is incorporated into the primer by reverse transcription. In brief, ^3 H-TTP, at a final concentration of 0.5 μCi/sample, was diluted in RT assay buffer (49.5 mM Tris-Cl, pH 8.0, 80 mM KCl, 10 Mm MgCl2, 10 mM DTT, 2.5 mM EGTA, 0.05% Nonidet-P-40), and added to annealed DNA/RNA bound to SPA beads. The compound being tested was added to the reaction mixture at 0.001 μM-100 μM concentrations. […] The reaction was stopped by addition of 0.2 ml of 120 mM EDTA. The samples were counted in an open window using a Beckman LS 7600 instrument and IC50 values were calculated by comparing the measurements to untreated samples.
# HIV-1 strain HTLVIIIB [2] = experiment: Inhibition of replication of HIV-1 strain HTLVIIIB in PBMC (p24 antigen EIA); assay type: cell-based
# Method: (§1) In addition, the anti-HIV activity of the compounds was measured by determining their ability to inhibit the replication of the HIV-1 strains HTLVIIIB, RT-MDR, A17, and A17 variant in peripheral blood mononuclear cells (PBMC) from healthy volunteer donors, using the method described in Uckun et.al., 1998, Antimicrobial Agents and Chemotherapy 42:383.
# (§2) Normal human peripheral blood mononuclear cells (PBMNC) from HIV-negative donors were cultured 72 hours in RPMI 1640 supplemented with 20% (v/v) heat-inactivated fetal bovine serum (FBS), 3% interleukin-2,2 mM L-glutairine, 25 mM HEPES, 2 μL, NAHCO, […] gentamicin, and 4 Ag/mL phytohemagglutinin prior to exposure to HIV-1 or other HIV strain. The cells were then infected with virus at a multiplicity of infection (MOI) of 0.1 during a one-hour adsorption period at 37° C. in a humidified 5% CO2 atmosphere. Subsequently, cells were cultured in 96-well microplates (100 μL/well; 2×10^6 cells/mL, triplicate wells) in the presence of various inhibitor concentrations. Aliquots of culture supernatants were removed from the wells on the 7 th day after infection for p24 antigen p24 enzyme immunoassays (EIA), as previously described in Erice et al., 1993, Antimicrob. Ag. Chemotherapy 37:385-838. The applied p24 EIA was the unmodified kinetic assay commercially available from Coulter Corporation/Immunotech, Inc. (Westbrook, Me.).
# (§3) Percent inhibition of viral replication was calculated by comparing the p24 values from the test substance-treated infected cells with p24 values from untreated infected cells (i.e, virus controls). […]
# [3] = test system: HIV-1 strain A17 variant (Y181C, K103N); experiment: microbe, parasite or virus in culture; assay type: cell-based
# Method: as §1, §2
# (§4) Percent inhibition of viral replication was calculated by comparing the p24 values from the test substance-treated infected cells with p24 values from untreated infected cells (i.e, virus controls).
# (§5) RT-MDR was obtained through the AIDS Research and Reference Reagent Program, from Dr. Bendan Larder, and is described in Larder et al., 1993, Nature, 365, 451-453.
# [4] = test system: HIV-1 strain RT-MDR (V106A); experiment: microbe, parasite or virus in culture; assay type: cell-based; conditions: for IC50: read-out: IC50 RT-MDR (V106A); for effectiveness against RT-MDR versus HTLVIIIB: more effective against RT-MDR than against HTLVIIIB
# Method: as §1, §2, §4, §5
# HIV-1 strain A17 (Y181C) = experiment: microbe, parasite or virus in culture; assay type: cell-based; conditions: for IC50: read-out: IC50 A17 (Y181C)
# Method: as §1, §2, §3
# [5] = Microculture Tetrazolium Assay (MTA), cytotoxicity; assay type: cell-based
# Method: A Microculture Tetrazolium Assay (MTA), using 2,3-bis(2-methoxy-4-nitro-5-sulfophenyl)-5-[(phenylamino)-carbonyl]-2H-tetrazolium hydroxide (XTT), was performed to evaluate the cytotoxicity of the compounds, using the methods described, for example, in Uckun et.al., 1998, Antimicrobial Agents and Chemotherapy 42:383; and Mao et.al., 1998, Bioorg. Med. Chem. Lett. 8:2213.
# HIV-1 strain HTLVIIIB [6] = conditions: earlier publication (Mao et al.), cited from earlier work
# [7] = test system: NNI-resistant HIV-1 strains; conditions: earlier publication (Mao et al., 1999); cited from earlier work
# [8] = Table 1 and text; recombinant HIV RT; read-out: IC90 rRT
# [9] = Human immunodeficiency virus 1, IIIB, PBMC, read-out: IC50 HTLV IIIB
# [10] = Human immunodeficiency virus 1, PBMC, read-out: IC50 A17 Varient (Y181C, K103N)
# [11] = Human immunodeficiency virus 1, PBMC
# [12] = IC50 rRT, Table 1 and text; recombinant HIV RT
# [13] = IC50 rRT, Table 2; recombinant HIV RT
# [14] = XTT cytotoxicity, read-out: CC50 MTA
# [15] = inhibition of p24 antigen production in PBMC, read-out: IC50 A17 Varient (Y181C, K103N)
# [16] = inhibition of p24 antigen production in PBMC
# [17] = Human immunodeficiency virus 1, IIIB, inhibition of p24 antigen production in PBMC, read-out: IC50 HTLV IIIB
smiles,measurement,setting,value
"S=C(NCCc1ccccn1)Nc1ccc(Br)cn1 [Trovirdine, reference compound]",IC90,[1]; [8],12000 nM
same,inhibited recombinant RT in vitro,[1]; recombinant RT in vitro,more than 90%
same,IC50,HIV-1 strain HTLVIIIB [2]; [9],7 nM
same,IC50,[3]; [10],> 100000 nM
same,IC50,[4]; [11],20 nM
same,IC50,HIV-1 strain A17 (Y181C); [11],500 nM
same,CC50,[5],> 100000 nM
"S=C(NCCN1CCCC1)Nc1ccc(Br)cn1 [HI-230, N-[2-(1-pyrolidylethyl)]-N'-[2-(5-bromopyridyl)]thiourea]",IC50,[1]; [12],4900 nM
same,IC90,[1]; [8],> 100000 nM
"S=C(NCCc1c[nH]c2ccccc12)Nc1ccc(Br)cn1 [HI-442, N-[2-(5-Bromopyridinyl)]-N'-[2-(3-Indolylethyl)]thiourea]",IC50,[1]; [12],900 nM
same,IC90,[1]; [8],> 100000 nM
"S=C(NCCN1CCNCC1)Nc1ccc(Br)cn1 [HI-258, N-[2-(1-piperizinylethyl)]-N'-[2-(5-bromopyridyl)]thiourea]",antiviral potency relative to trovirdine,HIV-1 strain HTLVIIIB [6]; HTLVIIIB,more potent than trovirdine
same,abrogated the replication of HTLVIIIB,HIV-1 strain HTLVIIIB [6]; human PBMC,nanomolar concentrations
same,inhibition of replication of NNI-resistant HIV-1 strains,[7],neither compound inhibited the replication
"S=C(NCCN1CCOCC1)Nc1ccc(Br)cn1 [HI-276, N-[2-(5-Bromopyridinyl)]-N'-[2-(4-Morpholinoethyl)]thiourea]",IC50,[1]; [12],> 100000 nM
same,IC90,[1]; [8],> 100000 nM
"S=C(NCCc1cnc[nH]1)Nc1ccc(Br)cn1 [HI-436, N-[2-(5-Bromopyridinyl)]-N'-[2-(2-Imidazolylethyl)]thiourea]",IC50,[1]; [12],> 100000 nM
same,IC90,[1]; [8],> 100000 nM
"S=C(NCc1ccco1)Nc1ccc(Br)cn1 [HI-503, N-[2-(5-Bromopyridinyl)]-N'-[2-(2-Furylmethyl)]thiourea]",IC50,[1]; [12],1200 nM
same,IC90,[1]; [8],> 100000 nM
"S=C(NCc1ccc2c(c1)OCO2)Nc1ccc(Br)cn1 [HI-257, N-[2-(1-piperonyl)]-N'-[2-(5-bromopyridyl)]thiourea]",IC50,[1]; [12],700 nM
same,IC90,[1]; [8],> 100000 nM
"S=C(NCCc1cccs1)Nc1ccc(Br)cn1 [HI-443, N-[2-(5-Bromopyridinyl)]-N'-[2-(2-Thiophenylethyl)]thiourea]",IC50,[1]; [12],800 nM
same,IC50,[1]; [13],5300 nM
same,IC90,[1]; [8],15000 nM
same,IC90,[1]; read-out: IC90 rRT; Table 1 and text; recombinant HIV RT,12000 nM
same,inhibited recombinant RT in vitro,[1]; recombinant RT in vitro,more than 90%
same,IC50,HIV-1 strain HTLVIIIB [2]; [9],30 nM
same,IC50,"HIV-1 strain HTLVIIIB [2]; Human immunodeficiency virus 1, PBMC, read-out: average IC50, HTLVIIIB replication",30 nM
same,IC50 HTLVIIIB relative to HI-172,HIV-1 strain HTLVIIIB [2]; times higher than IC50 of HI-172,30 times
same,IC50 HTLVIIIB relative to trovirdine,HIV-1 strain HTLVIIIB [2]; times higher than IC50 of trovirdine,5 times
same,IC50,"[3]; Human immunodeficiency virus 1, PBMC, read-out: IC50, A17 variant replication",3260 nM
same,IC50,[3]; [10],3260 nM
same,potency against A17 variant versus HTLVIIIB,"[3]; fold lower potency than HTLVIIIB, 10080 min",100 fold
same,IC50,[4]; [11],4 nM
same,effectiveness against RT-MDR versus HTLVIIIB,[4],ten
same,effectiveness against RT-MDR versus HTLVIIIB,[4]; 10080 min,10 times
same,potency against RT-MDR relative to AZT,[4]; more potent than AZT,50 times
same,potency against RT-MDR relative to HI-172,[4]; more potent than HI-172,"25,000 times"
same,potency against RT-MDR relative to HI-240,[4]; more potent than HI-240,1.25 times
same,potency against RT-MDR relative to MKC-442,[4]; more potent than MKC-442,75 times
same,potency against RT-MDR relative to delavirdine,[4]; more potent than delavirdine,100 times
same,potency against RT-MDR relative to nevirapine,[4]; more potent than nevirapine,1250 times
same,potency against RT-MDR relative to trovirdine,[4]; more potent than trovirdine,5 times
same,IC50,HIV-1 strain A17 (Y181C); [11],48 nM
same,potency against A17 relative to HI-172,HIV-1 strain A17 (Y181C); more potent than HI-172,2083 times
same,potency against A17 relative to HI-240,HIV-1 strain A17 (Y181C); more potent than HI-240,4.2 times
same,potency against A17 relative to delavirdine,HIV-1 strain A17 (Y181C); more potent than delavirdine,1042 times
same,potency against A17 relative to nevirapine,HIV-1 strain A17 (Y181C); more potent than nevirapine,2083 times
same,potency against A17 relative to trovirdine,HIV-1 strain A17 (Y181C); more potent than trovirdine,10 times
same,CC50,[5]; [14],> 100000 nM
"CCOCn1c(Cc2ccccc2)c(C(C)C)c(=O)[nH]c1=O [MKC-442, reference compound]",IC50,[4]; [11],300 nM
same,CC50,[5],> 100000 nM
"Cc1cn([C@H]2C[C@H](N=[N+]=[N-])[C@@H](CO)O2)c(=O)[nH]c1=O [AZT, reference compound]",IC50,[1]; [13],> 100000 nM
same,IC50,[3]; [15],4 nM
same,IC50,[4]; [16],200 nM
same,IC50,HIV-1 strain A17 (Y181C); [16],6 nM
same,CC50,[5]; [14],> 100000 nM
"Cc1ccnc2c1NC(=O)c1cccnc1N2C1CC1 [Nevirapine, reference compound]",IC50,HIV-1 strain HTLVIIIB [2]; [17],34 nM
same,IC50,[3]; [15],> 100000 nM
same,IC50,[4]; [16],5000 nM
same,IC50,HIV-1 strain A17 (Y181C); [16],> 100000 nM
"CC(C)Nc1cccnc1N1CCN(C(=O)c2cc3cc(NS(C)(=O)=O)ccc3[nH]2)CC1 [Delavirdine, reference compound]",IC50,HIV-1 strain HTLVIIIB [2]; [17],9 nM
same,IC50,[3]; [10],> 100000 nM
same,IC50,[4]; [11],400 nM
same,IC50,HIV-1 strain A17 (Y181C); [11],50000 nM
"CN1CCCC1CCNC(=S)Nc1ccc(Br)cn1 (stereo not shown) [HI-206, N-[2-(1-methyl-2-pyrrolidinylethyl)]-N'-[2-(5 bromopyridyl)]thiourea]",IC50,[1]; [12],> 100000 nM
same,IC90,[1]; [8],> 100000 nM
"Fc1ccccc1CCNC(=S)Nc1ccc(Br)cn1 [HI-240, N-[2-(2-fluorophenethyl)]-N'-[2-(5-bromopyridyl)]thiourea]",IC50,HIV-1 strain HTLVIIIB [2]; [17],< 1 nM
same,IC50,[3]; [10],41000 nM
same,IC50,[4]; [11],5 nM
same,IC50,HIV-1 strain A17 (Y181C); [11],200 nM
same,CC50,[5]; [14],> 100000 nM
